Like-named read-outs stand apart in the source and are kept apart here.
Key:
hPin1 = hPin1 (Homo sapiens, UniProt Q13526); assay: protease-coupled PPIase assay, hPin1; format: biochemical; conditions: 6 nM hPin1, substrate Ac-Ala-Ala-Ser(PO3H2)-Pro-Arg-pNA, trypsin, pH 7.8, 6° C.; read-out: IC50 class, Target T-1 (hPin1)
[1] = WST-1 cytotoxicity assay, HL-60; format: cell-based; conditions: human, HL-60 cells (acute myeloid leukemia); WST-1, 48 h incubation; read-out: EC50 class, cytotoxic effect, CL-1 (HL-60)
Method: (§1) For this cytotoxic evaluation of the compounds the commercial available WST-1 assay (Roche) was used according to the manufacturer's instructions. The assay is based on the cleavage of the tetrazolium salt WST-1 by mitochondrial dehydrogenases found in viable cells. In general compounds were added to cells cultured in 96-well plates at 37° C. After 48 h of incubation 10 μl of WST-1 solution was added. The formazan dye was analyzed with an ELISA plate reader at (450 vs. 620) nm. CL-1: human acute myeloid leukemia, HL-60 CL-2: human cervix carcinoma, HeLa CL-3: human prostate carcinoma, PC-3 CL-4: human colon adenocarcinoma, Caco-2 CL-5: human breast adenocarcinoma, MCF-7

[2] = WST-1 cytotoxicity assay, HeLa; format: cell-based; conditions: human, HeLa cells (cervix carcinoma); WST-1, 48 h incubation; read-out: EC50 class, cytotoxic effect, CL-2 (HeLa)
Method: as §1

[3] = WST-1 cytotoxicity assay, PC-3; format: cell-based; conditions: human, PC-3 cells (prostate carcinoma); WST-1, 48 h incubation; read-out: EC50 class, cytotoxic effect, CL-3 (PC-3)
Method: as §1

[4] = WST-1 cytotoxicity assay, MCF-7; format: cell-based; conditions: human, MCF-7 cells (breast adenocarcinoma); WST-1, 48 h incubation; read-out: EC50 class, cytotoxic effect, CL-5 (MCF-7)
Method: as §1

[5] = WST-1 cytotoxicity assay, Caco-2; format: cell-based; conditions: human, Caco-2 cells (colon adenocarcinoma); WST-1, 48 h incubation; read-out: EC50 class, cytotoxic effect, CL-4 (Caco-2)
Method: as §1

[6] = tested on: tumor cell lines (HL-60, HeLa, PC-3, Caco-2, MCF-7); assay: WST-1 cytotoxicity assay, tumor cell lines (panel statement); format: cell-based, human; conditions: WST-1, 48 h; table 4
Method: as §1

Papain = molecular target: T1, Papain (Carica papaya, UniProt P00784); assay: papain assay; format: biochemical; conditions: 16 μg/ml papain, 2 mM Bz-DL-Arg-pNA, pH 6.5, 30° C., 30 min incubation; read-out: IC50 class, Target T-6 (Papain)
T1 sequence (P00784 134-345): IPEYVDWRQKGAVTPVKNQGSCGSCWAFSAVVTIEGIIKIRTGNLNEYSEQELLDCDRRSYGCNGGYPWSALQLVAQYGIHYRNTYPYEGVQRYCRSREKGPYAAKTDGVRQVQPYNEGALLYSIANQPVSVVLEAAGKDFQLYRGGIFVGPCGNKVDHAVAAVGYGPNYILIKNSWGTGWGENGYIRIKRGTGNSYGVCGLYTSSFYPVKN
Method: (§2) In order to investigate the impact of some of the inventive compounds on the activity of key proteases the following assay was performed: Protease activities were measured spectrophotometrically at 30° C. according to Schomburg and Salzmann (Schomburg, B.; Salzmann M. GBF: Enzyme Handbook. Springer Verlag, Berlin Heidelberg, 1991) and Bergmeyer et al. (Bergmeyer, H. U.; Bergmeyer, J.; Graβl, M. Methods of Enzymatic Analysis, Vol. V Enzymes 3: Peptides, Proteinases and Their Inhibitors. pp 55-371, VCH, Weinheim, 1988). The release of 4-nitroaniline was determined at 390 nm with a Spectramax Plus UV/Vis spectrophotometer (Molecular Devices). The cathepsin B assay was performed in a reaction mixture containing 0.2 μg/ml cathepsin B, 2 mM Z-Arg-Arg-pNA in 88 mM KH2PO4, 12 mM Na2HPO4, 1.33 mM EDTA, 0.03% Brij 35 (pH 5.8). The trypsin assay was carried out in a reaction mixture containing 0.1 μg/ml trypsin and 120 μM Ac-Ala-Ala-Ser(PO3H2)-Pro-Arg-pNA in 35 mM HEPES (pH 7.8) and the papain assay in a mixture consisting of 16 μg/ml papain and 2 mM Bz-DL-Arg-pNA in 10 mM Na2HPO4, 2 mM L-Cys, 5 mM EDTA (pH 6.5). In general, reactions were started by addition of peptide substrate after a 30 min incubation of 1-100 μM effector with given concentrations of enzyme.

cathepsin B = cathepsin B (Homo sapiens, UniProt P07858); assay: cathepsin B assay; format: biochemical; conditions: 0.2 μg/ml cathepsin B, 2 mM Z-Arg-Arg-pNA, pH 5.8, 30° C., 30 min incubation; read-out: IC50 class, Target T-8 (Cathepsin)
Method: as §2

hFKBP12 = hFKBP12 (Homo sapiens, UniProt P62942); assay: protease-coupled PPIase assay, hFKBP12; format: biochemical; conditions: 20 nM hFKBP12, substrate Suc-Ala-Phe-Pro-Phe-pNA, chymotrypsin, pH 7.8, 6° C.; read-out: IC50 class, Target T-2 (hFKBP12)
hCyp18 = hCyp18 (Homo sapiens, UniProt P62937); assay: protease-coupled PPIase assay, hCyp18; format: biochemical; conditions: 10 nM hCyp18, substrate Suc-Ala-Phe-Pro-Phe-pNA, chymotrypsin, pH 7.8, 6° C.; read-out: IC50 class, Target T-3 (hCyp18)
LpCyp18 = LpCyp18 (Legionella pneumophila, UniProt Q5ZRZ4); assay: biochemical; conditions: IC50 class, Target T-4 (LpCyp18)
EcParvulin = EcParvulin (Escherichia coli, UniProt P0A9L5); assay: protease-coupled PPIase assay, EcParvulin; format: biochemical
[7] = tested on: cyclin D1 in MCF-7 and HeLa cells; assay: Cyclin D1 down regulation (western blot marker analysis); format: cell-based, human
Method: MCF-7 (5×10^5 cells/well) and HeLa cells (1.5×10^5 cells/well) were seeded in 6-well plates and incubated at 37° C. over night. Compounds or DMSO (final solvent concentration 0.1%) were added to the cells and incubated for different times as indicated. Subsequently, cells were lysed in RIPA buffer for 30 min on ice and centrifuged for 20 min at 4° C. After addition of electrophoresis sample buffer (4×) and 50 mM DTT to the supernatant, samples were boiled for 4 min at 95° C. Samples (equivalent to 2×10^5 cells/well) were run on a 15% SDS gel followed by blotting onto PVDF membrane.
The membrane was blocked for 1 h in 10 mM Tris (pH 7.5), 100 mM NaCl, 0.1% Tween-20 and 5% non-fat dry milk (blocking buffer) and incubated for 1 h with mouse anti-hCyclin D1 monoclonal antibody (clone DCS-6, BD Biosciences) diluted to 1 μg/ml in blocking buffer. Blots were washed 3×10 min with 10 mM Tris (pH 7.5), 100 mM NaCl, 0.1% Tween-20 (washing buffer) and incubated with 0.7 μg/ml peroxidase-conjugated sheep anti-mouse IgG (Sigma) in blocking buffer for 1 h. After washing 3×10 min with washing buffer, the plot was developed with the ECL+ detection kit (Amersham Biosciences).

Trypsin = molecular target: T2, Trypsin (UniProt P00760); assay: trypsin assay; format: biochemical; conditions: 0.1 μg/ml trypsin, 120 μM Ac-Ala-Ala-Ser(PO3H2)-Pro-Arg-pNA, pH 7.8, 30° C., 30 min incubation; read-out: IC50 class, Target T-7 (Trypsin)
T2 sequence (P00760 1-246): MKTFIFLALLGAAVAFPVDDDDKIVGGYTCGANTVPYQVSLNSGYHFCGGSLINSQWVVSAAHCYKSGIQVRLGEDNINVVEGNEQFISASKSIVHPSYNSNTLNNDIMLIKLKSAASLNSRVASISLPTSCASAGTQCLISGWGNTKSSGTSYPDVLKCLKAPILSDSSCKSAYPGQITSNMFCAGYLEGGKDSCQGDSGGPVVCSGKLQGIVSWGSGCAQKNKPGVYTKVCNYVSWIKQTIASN
Method: as §2

hPin1, sequence (Q13526 whole entry): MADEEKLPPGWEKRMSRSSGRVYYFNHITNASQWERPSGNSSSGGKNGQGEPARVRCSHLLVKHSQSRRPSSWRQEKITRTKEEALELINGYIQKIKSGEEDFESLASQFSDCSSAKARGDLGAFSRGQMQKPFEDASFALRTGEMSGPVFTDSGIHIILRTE
hFKBP12, sequence (P62942 whole entry): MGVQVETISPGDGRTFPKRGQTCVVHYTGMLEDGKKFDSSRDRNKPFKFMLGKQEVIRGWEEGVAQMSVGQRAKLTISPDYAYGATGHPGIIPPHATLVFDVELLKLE
hCyp18, sequence (P62937 whole entry): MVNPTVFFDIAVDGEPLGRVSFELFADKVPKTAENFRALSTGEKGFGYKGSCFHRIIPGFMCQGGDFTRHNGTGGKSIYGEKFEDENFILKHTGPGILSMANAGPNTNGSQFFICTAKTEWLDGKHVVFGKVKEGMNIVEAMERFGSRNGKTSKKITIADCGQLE
LpCyp18, sequence (Q5ZRZ4 1-164): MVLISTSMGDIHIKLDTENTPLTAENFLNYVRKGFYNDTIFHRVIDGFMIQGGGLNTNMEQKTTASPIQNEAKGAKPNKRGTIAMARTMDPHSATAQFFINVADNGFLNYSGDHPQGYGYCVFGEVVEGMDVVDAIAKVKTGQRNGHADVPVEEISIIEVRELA
EcParvulin, sequence (P0A9L5 whole entry): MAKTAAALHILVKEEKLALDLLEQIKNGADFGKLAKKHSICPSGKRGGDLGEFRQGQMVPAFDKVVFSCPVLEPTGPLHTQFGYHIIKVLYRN

Structure (SMILES) | IC50 (hPin1) [µM] | EC50 at 48 h [1] [µM] | EC50 at 48 h [2] [µM] | EC50 at 48 h [3] [µM] | EC50 at 48 h [4] [µM] | cytotoxic effect on the tumor cell lines tested [6] | IC50 (Papain) [µM] | IC50 (cathepsin B) [µM] | further results
Cc1c(Cl)cc(NC(=S)NCc2ccccc2)c(O)c1Cl [Compound 254] | < 1 | 10 to 50 | 10 to 50 | 10 to 50 | 10 to 50 | – | – | – | –
Cc1c(Cl)cc(NC(=S)Nc2ccccc2C(F)(F)F)c(O)c1Cl [Compound 261] | – | < 10 | 10 to 50 | 10 to 50 | 10 to 50 | – | – | – | EC50 at 48 h [5]: 10 to 50 µM
Oc1c(F)cccc1NCc1ccccc1Sc1ccc(Cl)cc1 [Compound 357] | – | < 10 | < 10 | < 10 | – | particular relevance | – | – | –
Cc1c(Cl)cc(NCc2cccc(Oc3ccccc3)c2)c(O)c1Cl [Compound 497] | – | – | – | – | – | – | > 100 | 10 to 50 | –
Cc1c(Cl)cc(NC(=O)CC(C)CC(C)(C)C)c(O)c1Cl (stereo not drawn) [Compound 599] | 1 to 10 | – | – | – | – | – | > 100 | 50 to 100 | IC50 (hFKBP12): > 100 µM; IC50 (hCyp18): > 100 µM; IC50 (LpCyp18): 50 to 100 µM; IC50 (EcParvulin): 10 to 50 µM
O=C(Nc1ccc(Cl)cc1)Nc1cc(Cl)c(O)c(NCc2ccccc2Sc2ccc(Cl)cc2)c1 [Compound 633] | – | < 10 | – | < 10 | – | particular relevance | – | – | –
CC(C)NC(=S)Nc1cc(-c2nc3ccccc3s2)cc(Cl)c1O [Compound 639] | < 1 | < 10 | – | – | 10 to 50 | – | – | – | cyclin D1 down regulation [7]: particular relevance
O=C(Nc1cc(Cl)cc(Cl)c1O)c1ccc(-c2ccccc2)cc1 [Compound 645] | – | < 10 | < 10 | < 10 | < 10 | particular relevance | > 100 | – | –
Cc1c(Cl)cc(NCc2ccco2)c(O)c1Cl [Compound 646] | – | – | – | – | – | – | > 100 | > 100 | –
Cc1c(Cl)cc(NCc2ccccc2C(F)(F)F)c(O)c1Cl [Compound 649] | – | – | – | – | – | – | > 100 | 50 to 100 | –
O=C(Nc1cc(Cl)nc(Cl)c1)Nc1cc(Cl)c(O)c(NCc2ccccc2Sc2ccc(Cl)cc2)c1 [Compound 652] | – | < 10 | – | < 10 | – | particular relevance | – | – | –
Cc1c(Cl)cc(NC(=O)NCCCCCCNC(=O)Nc2cc(Cl)c(C)c(Cl)c2O)c(O)c1Cl [Compound 673] | < 1 | – | – | – | < 10 | particular relevance | – | – | cyclin D1 down regulation [7]: particular relevance
CC(C)(C)CC(C)(C)NC(=O)Nc1cc(Cl)c(O)c(Cl)c1 [Compound 703] | < 1 | 10 to 50 | 10 to 50 | 10 to 50 | – | particular relevance | > 100 | > 100 | IC50 (hFKBP12): > 100 µM; IC50 (hCyp18): > 100 µM; IC50 (LpCyp18): > 100 µM; IC50 (EcParvulin): 1 to 10 µM; IC50 (Trypsin): 50 to 100 µM; EC50 at 48 h [5]: 10 to 50 µM
Oc1ccc(NCc2ccccc2Sc2ccc(Cl)cc2)c(O)c1 [Compound 1044] | < 1 | 10 to 50 | 10 to 50 | 10 to 50 | – | particular relevance | – | – | IC50 (hFKBP12): 10 to 50 µM; IC50 (hCyp18): 10 to 50 µM; IC50 (LpCyp18): 1 to 10 µM; IC50 (EcParvulin; 20 nM EcParvulin, substrate Suc-Ala-Phe-Pro-Phe-pNA, chymotrypsin, pH 7.8, 6° C., read-out: IC50 class, Target T-5 (EcParv)): 10 to 50 µM
CC(C)=CC(=O)Nc1cc(Cl)c(O)c(Cl)c1 [Compound 1296] | 1 to 10 | 50 to 100 | – | – | – | – | > 100 | > 100 | IC50 (hFKBP12): > 100 µM; IC50 (hCyp18): 10 to 50 µM; IC50 (LpCyp18): > 100 µM; IC50 (EcParvulin): 10 to 50 µM; IC50 (Trypsin): > 100 µM
